In ChEMBL document CHEMBL1157531, “Sinulaflexiolides A-K, cembrane-type diterpenoids from the chinese soft coral Sinularia flexibilis” (J Nat Prod, 2008):

Test: Cytotoxicity against human […] cells
Type: functional, cell-based

| Structure (SMILES) | IC50 |
| --- | --- |
| C=C1C(=O)O[C@]2(C)CC[C@@H]1C[C@H]1O[C@@]1(C)CC[C@H](OC(C)=O)[C@@]1(C)CC[C@@H]2O1 | > 10 µg/mL |
| C=C1C(=O)O[C@@H]2C[C@H]1CC/C(C)=C/CC/C(C)=C/CC[C@]2(C)O | > 10 µg/mL |
| C=C1C(=O)O[C@]2(C)CC[C@@H]1C[C@@H](O)[C@@](C)(O)CC/C=C(\C)CC[C@@H]2O [CAPILLOLIDE] | > 10 µg/mL |
| C=C1C(=O)O[C@]2(C)CC[C@@H]1C[C@H](O)/C(C)=C/C/C=C(\C)CC[C@@H]2OC(C)=O [DENDRONPHOLIDE A] | > 10 µg/mL |
| C=C(C(=O)OC)[C@@H]1CC[C@@](C)(O)[C@@H]2CC[C@@](C)(O2)[C@@H](OC(C)=O)CC[C@]2(C)O[C@@H]2C1 [SINULAFLEXIOLIDE E] | 8.5 µM |
| C=C(C(=O)OCC)[C@@H]1CC[C@@](C)(O)[C@@H]2CC[C@@](C)(O2)[C@@H](OC(C)=O)CC[C@]2(C)O[C@@H]2C1 [SINULAFLEXIOLIDE F] | 0.12 µM |
